Where a name gives a salt, the structure may show the parent alone.

The values that follow come from patent US8536183B2, “3-pyridylcarbonyl-piperazinylsulfonyl derivatives” (Convergence Pharmaceuticals Limited, priority 2008, dated 2013).

The test addresses T1, hCaV2.2 (Homo sapiens, UniProt Q00975).
T1 construct: expressed in transfected cells; plasmids pCIN5-hCaV2.2, pCIH-hCaV β3, pCIP-α2δ1
The test can be described thus: hCaV2.2 assay, IonWorks planar array electrophysiology in stably transfected HEK293 cells. The format is cell-based. Particulars: current elicited by the 1st depolarising pulse inhibited by 50%; HEK293 cells expressing human CaV2.2 alpha/beta3/alpha2delta1; read-out: mean pIC50 (tonic pIC50) (converted). The method, then:
Compounds of the invention may be tested for in vitro biological activity in the hCaV2.2 assay in accordance with the following studies:
Stable cell lines expressing the human CaV2.2 α (als) subunit, along with the human […] and α2δ1 auxiliary subunits were created following sequential transfection and selection of human embryonic kidney (HEK293) cells. HEK293 cells were cultured in Dulbecco's modified Eagles media/F12 media (Invitrogen, Cat #041-95750V) containing 10% foetal bovine serum, with added L-glutamine (2 mM; Invitrogen, Cat #25030-024) and non-essential amino acids (5%; Invitrogen, Cat #11140-035). Initially HEK293 cells were transfected with two plasmid vectors for expression of the hCaV2.2 α subunit (pCIN5-hCaV2.2 which carries a neomycin resistance marker) and the hCaV β3 subunit (pCIH-hCaV β3 which carries a hygromycin resistance marker). Clonal cell lines were isolated following selection in media supplemented with 0.4 mg ml^−1 Geneticin G418 (Invitrogen, Cat #10131-027) and 0.1 mg ml^1 hygromycin (Invitrogen, Cat #10687-010). These clonal cell lines were assessed for Cav2.2α/β3-mediated current expression using the IonWorks planar array electrophysiology technology (described below). A clonal line was identified that gave a reasonable level of functional Cav2.2α/β3 current expression. This cell line was transfected with a plasmid vector for expression of the human […] subunit (pCIP-α2δ1 which carries a puromycin resistance marker) and clonal cell lines isolated following selection in media containing 0.62 μg ml^−1 puromycin (Sigma, Cat #P-7255), in addition to 0.4 mg ml^−1 Geneticin G418 and 0.1 mg ml^−1 hygromycin. Several cell lines were identified that gave robust levels of Cav2.2α/β3/α2δ1-mediated current expression and one of these was selected for compound profiling. Expression of all three subunits within this cell line was continuously maintained by the inclusion of G418 (0.4 mg ml^−1), hygromycin (0.1 mg ml^−1) and puromycin (0.62 μg ml^−1). Cells were maintained at 37° C. in a humidified environment containing 5% CO2 in air. Cells were liberated from the T175 culture flasks for passage and harvesting using TrpLE (Invitrogen, Cat #12604-013).
Cells were grown to 30-60% confluence in T175 flasks and maintained at 30° C. for 24 hrs prior to recording. Cells were lifted by removing the growth media, washing with Ca^2+ free PBS (Invitrogen, Cat #14190-094) and incubating with 3 ml of warmed (37° C.) TrpLE (Invitrogen, Cat #12604-013) for 6 minutes. Lifted cells were suspended in 10 ml of extracellular buffer. Cell suspension was then placed into a 15 ml tube and centrifuged for 2 minutes at 700 rpm. After centrifugation, the supernatant was removed and the cell pellet was resuspended in 4.5 ml of extracellular solution.
Currents were recorded at room temperature (21-23° C.) using the IonWorks planar array electrophysiology technology (Molecular Devices Corp.). Stimulation protocols and data acquisition were carried out using a microcomputer (Dell Pentium 4). In order to determine planar electrode hole resistances (Rp), a 10 mV, 160 ms potential difference was applied across each hole. These measurements were performed before cell addition. After cell addition a seal test was performed prior to antibiotic (amphotericin) circulation to achieve intracellular access. Leak subtraction was conducted in all experiments by applying a 160 ms hyperpolarizing (10 mV) prepulse 200 ms before the test pulses to measure leak conductance. Test pulses stepping from the holding potential (VH) of −90 mV to +10 mV were applied for 20 ms and repeated 10 times at a frequency of 10 Hz. In all experiments, the test pulse protocol was performed in the absence (pre-read) and presence (post-read) of a compound. Pre- and post-reads were separated by a compound addition followed by a 3-3.5 min incubation.
The intracellular solution contained the following (in mM): K-gluconate 120, KCl 20 mM, MgCl2 5, EGTA 5, HEPES 10, adjusted to pH 7.3. […]
(In general: Patch clamp records ionic current or voltage across a cell membrane.)

T1 sequence (Q00975 whole entry): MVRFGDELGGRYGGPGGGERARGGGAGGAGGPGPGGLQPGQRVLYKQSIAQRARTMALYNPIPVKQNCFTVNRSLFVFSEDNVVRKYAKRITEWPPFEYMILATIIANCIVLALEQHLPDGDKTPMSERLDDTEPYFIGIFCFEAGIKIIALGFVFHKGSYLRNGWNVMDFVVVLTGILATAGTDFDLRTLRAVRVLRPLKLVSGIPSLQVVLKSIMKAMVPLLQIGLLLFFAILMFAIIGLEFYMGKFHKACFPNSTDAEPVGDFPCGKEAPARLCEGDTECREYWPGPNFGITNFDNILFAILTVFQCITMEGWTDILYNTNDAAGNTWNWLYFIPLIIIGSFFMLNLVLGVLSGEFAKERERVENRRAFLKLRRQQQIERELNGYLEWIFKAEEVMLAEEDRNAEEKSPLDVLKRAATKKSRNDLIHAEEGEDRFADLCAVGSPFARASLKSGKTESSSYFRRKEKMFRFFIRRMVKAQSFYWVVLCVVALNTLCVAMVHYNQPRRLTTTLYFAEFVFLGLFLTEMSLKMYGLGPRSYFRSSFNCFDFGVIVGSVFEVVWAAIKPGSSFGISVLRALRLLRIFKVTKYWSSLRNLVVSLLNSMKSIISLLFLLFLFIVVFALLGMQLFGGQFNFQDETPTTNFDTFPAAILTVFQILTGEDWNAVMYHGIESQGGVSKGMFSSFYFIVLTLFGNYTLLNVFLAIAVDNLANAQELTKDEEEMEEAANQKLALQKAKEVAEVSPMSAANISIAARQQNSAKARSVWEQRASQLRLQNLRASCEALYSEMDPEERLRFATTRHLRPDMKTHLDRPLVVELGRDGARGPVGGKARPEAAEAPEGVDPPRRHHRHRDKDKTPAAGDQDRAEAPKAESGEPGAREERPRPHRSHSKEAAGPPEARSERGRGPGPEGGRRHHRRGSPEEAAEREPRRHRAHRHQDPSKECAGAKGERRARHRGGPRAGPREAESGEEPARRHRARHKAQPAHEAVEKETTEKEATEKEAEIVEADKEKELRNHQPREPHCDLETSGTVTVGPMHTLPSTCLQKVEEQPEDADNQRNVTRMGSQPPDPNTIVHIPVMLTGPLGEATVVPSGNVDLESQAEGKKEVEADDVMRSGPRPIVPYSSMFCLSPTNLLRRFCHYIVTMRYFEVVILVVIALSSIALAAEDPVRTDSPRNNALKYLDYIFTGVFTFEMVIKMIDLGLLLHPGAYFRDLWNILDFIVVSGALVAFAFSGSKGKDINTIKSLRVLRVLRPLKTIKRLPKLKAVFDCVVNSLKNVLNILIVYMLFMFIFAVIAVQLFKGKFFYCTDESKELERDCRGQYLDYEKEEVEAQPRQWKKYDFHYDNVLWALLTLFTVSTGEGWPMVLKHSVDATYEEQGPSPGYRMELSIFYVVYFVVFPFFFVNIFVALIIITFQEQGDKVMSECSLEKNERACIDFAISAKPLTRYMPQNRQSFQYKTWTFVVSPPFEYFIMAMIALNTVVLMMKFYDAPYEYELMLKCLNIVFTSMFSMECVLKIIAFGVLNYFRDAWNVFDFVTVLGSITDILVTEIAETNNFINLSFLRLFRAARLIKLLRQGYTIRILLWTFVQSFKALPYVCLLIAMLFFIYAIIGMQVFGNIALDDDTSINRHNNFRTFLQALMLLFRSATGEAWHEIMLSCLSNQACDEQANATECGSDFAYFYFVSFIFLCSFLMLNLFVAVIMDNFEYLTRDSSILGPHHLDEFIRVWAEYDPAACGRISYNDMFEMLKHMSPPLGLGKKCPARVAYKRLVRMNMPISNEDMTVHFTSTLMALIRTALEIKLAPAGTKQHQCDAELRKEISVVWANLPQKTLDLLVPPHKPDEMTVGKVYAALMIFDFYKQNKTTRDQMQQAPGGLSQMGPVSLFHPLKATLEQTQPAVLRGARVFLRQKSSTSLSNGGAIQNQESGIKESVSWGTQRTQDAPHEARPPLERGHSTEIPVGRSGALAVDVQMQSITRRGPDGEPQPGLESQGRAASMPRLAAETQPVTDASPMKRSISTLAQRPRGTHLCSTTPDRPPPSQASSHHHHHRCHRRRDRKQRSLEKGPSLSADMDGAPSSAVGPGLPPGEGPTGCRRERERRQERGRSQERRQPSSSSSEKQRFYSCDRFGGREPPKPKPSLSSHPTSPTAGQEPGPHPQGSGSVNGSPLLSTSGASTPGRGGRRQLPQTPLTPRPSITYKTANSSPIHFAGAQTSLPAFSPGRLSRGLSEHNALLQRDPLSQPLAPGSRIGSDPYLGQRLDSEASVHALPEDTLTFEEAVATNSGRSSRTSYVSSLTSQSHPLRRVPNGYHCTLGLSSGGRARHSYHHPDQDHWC

In the case of `Cc1cc(C#N)ccc1S(=O)(=O)N1CCN(C(=O)c2ccc(Cl)nc2C)[C@@H](C)C1` [Example 25, 4-({(3S)-4-[(6-Chloro-2-methyl-3-pyridinyl)carbonyl]-3-methyl-1-piperazinyl}sulfonyl)-3-methylbenzonitrile], the IC50 is at least 10 µM.
As for `C[C@H]1CN(S(=O)(=O)c2ccc(C(F)(F)F)cc2)CCN1C(=O)c1cncc(Br)c1` [Example 28, (2S)-1-[(5-Bromo-3-pyridinyl)carbonyl]-2-methyl-4-{[4-(trifluoromethyl)phenyl]sulfonyl}piperazine], the IC50 was at least 10 µM.
Under `Cc1ccc(C(=O)N2CCN(S(=O)(=O)c3ccc(C(F)(F)F)cc3)C[C@@H]2C)c(C)n1` [Example 29, (2S)-1-[(2,6-Dimethyl-3-pyridinyl)carbonyl]-2-methyl-4-{[4-(trifluoromethyl)phenyl]sulfonyl}piperazine] stands at least 10 µM; under `Cc1cc(C#N)ccc1S(=O)(=O)N1CCN(C(=O)c2ccc(N(C)C)nc2C)[C@@H](C)C1` [Example 30, 4-[((3S)-4-{[6-(Dimethylamino)-2-methyl-3-pyridinyl]carbonyl}-3-methyl-1-piperazinyl)sulfonyl]-3-methylbenzonitrile hydrochloride], at least 10 µM; under `Cc1nc(N2CCOCC2)ccc1C(=O)N1CCN(S(=O)(=O)c2ccc(C(F)(F)F)cc2)C[C@@H]1C` [Example 34, 4-{6-Methyl-5-[((2S)-2-methyl-4-{[4-(trifluoromethyl)phenyl]sulfonyl}-1-piperazinyl)carbonyl]-2-pyridinyl}morpholine hydrochloride], at least 10 µM.
For `Cc1cc(C#N)ccc1S(=O)(=O)N1CCN(C(=O)c2ccc(N3CCOCC3)nc2C)[C@@H](C)C1` [Example 35, 3-Methyl-4-[((3S)-3-methyl-4-{[2-methyl-6-(4-morpholinyl)-3-pyridinyl]carbonyl}-1-piperazinyl)sulfonyl]benzonitrile hydrochloride], the IC50 is at least 10 µM.
Regarding `CNc1ccc(C(=O)N2CCN(S(=O)(=O)c3ccc(C#N)cc3C)C[C@@H]2C)c(C)n1` [Example 38, 3-Methyl-4-[((3S)-3-methyl-4-{[2-methyl-6-(methylamino)-3-pyridinyl]carbonyl}-1-piperazinyl)sulfonyl]benzonitrile], the IC50 was at least 31.6 µM.
On to `Cc1nc(N2CCC2)ccc1C(=O)N1CCN(S(=O)(=O)c2ccc(C(F)(F)F)cc2)C[C@@H]1C` [Example 39, (2S)-1-{[6-(1-Azetidinyl)-2-methyl-3-pyridinyl]carbonyl}-2-methyl-4-{[4-(trifluoromethyl)phenyl]sulfonyl}piperazine hydrochloride], for which the IC50 was at least 31.6 µM.
Under `Cc1cc(C#N)ccc1S(=O)(=O)N1CCN(C(=O)c2ccc(N3CCC3)nc2C)[C@@H](C)C1` [Example 40, 4-[((38)-4-{[6-(1-Azetidinyl)-2-methyl-3-pyridinyl]carbonyl}-3-methyl-1-piperazinyl)sulfonyl]-3-methylbenzonitrile hydrochloride] stands at least 31.6 µM; under `C[C@H]1CN(S(=O)(=O)c2ccc(C(F)(F)F)cc2)CCN1C(=O)c1ccc(N(C)C)nc1` [Example 41, N,N-Dimethyl-5-[((2S)-2-methyl-4-{[4-(trifluoromethyl)phenyl]sulfonyl}-1-piperazinyl)carbonyl]-2-pyridinamine hydrochloride], at least 10 µM; under `C[C@H]1CN(S(=O)(=O)c2ccc(C(F)(F)F)cc2)CCN1C(=O)c1ccc(N2CCOCC2)nc1` [Example 42, 4-{5-[((2S)-2-Methyl-4-{[4-(trifluoromethyl)phenyl]sulfonyl}-1-piperazinyl)carbonyl]-2-pyridinyl}morpholine hydrochloride], at least 10 µM.
Under `CNc1ccc(C(=O)N2CCN(S(=O)(=O)c3ccc(C(F)(F)F)cc3)C[C@@H]2C)cn1` [Example 44, Methyl-5-[((2S)-2-methyl-4-{[4-(trifluoromethyl)phenyl]sulfonyl}-1-piperazinyl)carbonyl]-2-pyridinamine hydrochloride] stands at least 10 µM; under `C[C@H]1CN(S(=O)(=O)c2ccc(C(F)(F)F)cc2)CCN1C(=O)c1ccc(N2CCC2)nc1` [Example 45, (2S)-1-{[6-(1-Azetidinyl)-3-pyridinyl]carbonyl}-2-methyl-4-{[4-(trifluoromethyl)phenyl]sulfonyl}piperazine hydrochloride], at least 10 µM; under `Cc1cc(N2CCOCC2)ncc1C(=O)N1CCN(S(=O)(=O)c2ccc(C(F)(F)F)cc2)C[C@@H]1C` [Example 47, 4-{4-Methyl-5-[((2S)-2-methyl-4-{[4-(trifluoromethyl)phenyl]sulfonyl}-1-piperazinyl)carbonyl]-2-pyridinyl}morpholine hydrochloride], at least 10 µM.
Regarding `Cc1ccc(C(=O)N2CCN(S(=O)(=O)c3ccc(C#N)cc3C)[C@@H](C)C2)cn1` [Example 52, 3-methyl-4-({(2S)-2-methyl-4-[(6-methyl-3-pyridinyl)carbonyl]-1-piperazinyl}sulfonyl)benzonitrile hydrochloride], the IC50 is at least 31.6 µM.
With `CCc1ccc(C(=O)N2CCN(S(=O)(=O)c3ccc(C#N)cc3C)C[C@@H]2C)cn1` [Example 53, 4-({(3S)-4-[(6-ethyl-3-pyridinyl)carbonyl]-3-methyl-1-piperazinyl}sulfonyl)-3-methylbenzonitrile hydrochloride], the IC50 was at least 31.6 µM.
Under `CCN(CC)c1ccc(C(=O)N2CCN(S(=O)(=O)c3ccc(C(F)(F)F)cc3)CC2)cn1` [Example 56, N,N-diethyl-5-[(4-{[4-(trifluoromethyl)phenyl]sulfonyl}-1-piperazinyl)carbonyl]-2-pyridinamine] stands at least 10 µM.
Under `CN(C)c1ccc(C(=O)N2CCN(S(=O)(=O)c3ccc(C(F)(F)F)cc3)CC2)cn1` [Example 57, N,N-dimethyl-5-[(4-{[4-(trifluoromethyl)phenyl]sulfonyl}-1-piperazinyl)carbonyl]-2-pyridinamine] stands at least 31.6 µM.
Under `Cc1ncccc1C(=O)N1CCN(S(=O)(=O)c2ccc(OC(F)(F)F)cc2)C[C@H]1C` [Example 58, (2R)-2-methyl-1-[(2-methyl-3-pyridinyl)carbonyl]-4-({4-[(trifluoromethyl)oxy]phenyl}sulfonyl)piperazine] stands at least 31.6 µM; under `Cc1ccc(C(=O)N2CCN(S(=O)(=O)c3cc(C(F)(F)F)ccc3C)C[C@@H]2C)cn1` [Example 59, (2S)-2-methyl-1-[(6-methyl-3-pyridinyl)carbonyl]-4-{[2-methyl-5-(trifluoromethyl)phenyl]sulfon-yl}piperazine], at least 31.6 µM.
Turning to `Cc1ccc(C(F)(F)F)cc1S(=O)(=O)N1CCN(C(=O)c2cccnc2C)[C@@H](C)C1` [Example 60, (2S)-2-methyl-1-[(2-methyl-3-pyridinyl)carbonyl]-4-{[2-methyl-5-(trifluoromethyl)phenyl]sulfon-yl}piperazine], the IC50 was at least 10 µM.
Under `Cc1ccc(C(=O)N2CCN(S(=O)(=O)c3cc(C(F)(F)F)ccc3C)CC2)cn1` [Example 61, 1-[(6-methyl-3-pyridinyl)carbonyl]-4-{[2-methyl-5-(trifluoromethyl)phenyl]sulfon-yl}piperazine] stands at least 31.6 µM; under `Cc1ccc(C(F)(F)F)cc1S(=O)(=O)N1CCN(C(=O)c2cccnc2C)CC1` [Example 62, 1-[(2-methyl-3-pyridinyl)carbonyl]-4-{[2-methyl-5-(trifluoromethyl)phenyl]sulfon-yl}piperazine], at least 31.6 µM.
